# “And” between values parts separate entries of the source, which are not always exact repeats. Identical values can stand only once.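 Step 1: Grow cells in 96-well plates. Step 2: Expose to compound for 48 hours at 5 concentrations. Step 3: Interpolate endpoints linearly; if unreached, use highest concentration. GI50 marks 50% less growth. The concentration for full growth arrest is given as TGI.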
# Assays:
# Test in all cases: DTP human tumour cell line panel, 48 h
# HCC-2998 colon = system: HCC-2998 colon
# SNB-75 CNS = system: SNB-75 CNS
# NCI-H522 lung = system: NCI-H522 lung
# 786-0 renal = system: 786-0 renal
# RXF 393 renal = system: RXF 393 renal
# SF-539 CNS = system: SF-539 CNS
# ACHN renal = system: ACHN renal
# SK-MEL-2 melanoma = system: SK-MEL-2 melanoma
# K-562 leukemia = system: K-562 leukemia
# KM12 colon = system: KM12 colon
Compound,GI50 (HCC-2998 colon),TGI (HCC-2998 colon),GI50 (SNB-75 CNS),TGI (SNB-75 CNS),GI50 (NCI-H522 lung),TGI (NCI-H522 lung),GI50 (786-0 renal),TGI (786-0 renal),GI50 (RXF 393 renal),TGI (RXF 393 renal),GI50 (SF-539 CNS),TGI (SF-539 CNS),GI50 (ACHN renal),TGI (ACHN renal),GI50 (SK-MEL-2 melanoma),TGI (SK-MEL-2 melanoma),GI50 (K-562 leukemia),TGI (K-562 leukemia),GI50 (KM12 colon),TGI (KM12 colon)
CC1CCCc2c1nn(C(=O)/C=C(\N)c1ccccc1)c2N (stereo not drawn),14.6 µM,85.5 µM,25.6 µM,> 100 µM,13.6 µM,61.7 µM,16.2 µM,> 100 µM,31.3 µM,> 100 µM,17.7 µM,> 100 µM,9.94 µM,> 100 µM,34.8 µM,> 100 µM,4.99 µM,> 100 µM,5.97 µM,> 100 µM
O=S(=O)(CCOCc1ccc(-c2ccc3ncnc(Nc4ccc(OCc5cccc(F)c5)c(Cl)c4)c3c2)o1)c1ccccc1,> 25 µM,> 25 µM,> 25 µM,> 25 µM,> 25 µM,> 25 µM,> 25 µM,> 25 µM,> 25 µM,> 25 µM,> 25 µM,> 25 µM,1.86 µM,> 25 µM,> 25 µM,> 25 µM,> 25 µM,> 25 µM,> 25 µM,> 25 µM
C=CCC1[C@@H](C(C)(C)C(C(C)=O)C(=O)C(=O)OC)OC(C(C)(C)C)N1C(=O)OC (stereo partly drawn),–,> 100 µM,–,> 100 µM,–,> 100 µM,–,> 100 µM,–,> 100 µM,–,> 100 µM,–,> 100 µM,–,> 100 µM,–,> 100 µM,–,> 100 µM
CCOC(=O)c1ccc(N[C@@H]2c3cc4c(cc3C(C3=CC(=O)C(=O)C(OC)=C3)[C@H]3C(=O)OCC32)OCO4)cc1 (stereo partly drawn),–,10.9 µM,–,9.04 µM,–,18.8 µM,–,4.09 µM,–,16.8 µM,–,4.56 µM,–,3.86 µM,–,6.08 µM,–,> 69.4 µM,–,> 33.2 µM
O=C(/C=C/c1ccccc1)CC(c1ccccc1)N1CCOCC1 (stereo not drawn),1.9 µM,3.54 µM,12.5 µM,27.7 µM,4.1 µM,20 µM,1.95 µM,3.61 µM,1.61 µM,3.03 µM,2.24 µM,5.98 µM,2.03 µM,4.4 µM,26.5 µM,66.9 µM,3.4 µM,21.8 µM,1.99 µM,3.72 µM
CCN(CC)CCNC(=O)c1c(C)[nH]c(/C=C2\C(=O)Nc3ccc(F)cc32)c1C,–,> 10 µM and 7.03 µM and 3.06 µM,4.61 µM and 2.11 µM and 4.33 µM,> 10 µM and 4.55 µM and 14 µM,6.2 µM and 3.52 µM and 2.73 µM,> 10 µM and 6.92 µM and 6.1 µM,4.13 µM and 3.07 µM and 2.3 µM,> 10 µM and 6.16 µM and 7.76 µM,1.19 µM and 1.45 µM and 1.38 µM,8.47 µM and 4.56 µM and 4.37 µM,1.38 µM and 2.36 µM and 1.21 µM,6.7 µM and 5.41 µM and 2.72 µM,1.77 µM and 1.53 µM and 1.32 µM,> 10 µM and 6.48 µM and 9.5 µM,1.38 µM and 2.1 µM and 4.56 µM,9.46 µM and 4.82 µM and 13.2 µM,2.29 µM and 3.22 µM and 1.53 µM,> 10 µM and 9.75 µM and 5.57 µM,0.11 µM and 0.1 µM and 0.0322 µM,> 10 µM and 3.03 µM and 5.54 µM
COC(=O)/C(C#N)=C1\CCC(C(=O)OC)N1C (stereo not drawn),–,> 100 µM,–,> 100 µM,–,> 100 µM,–,> 100 µM,–,> 100 µM,–,> 100 µM,–,–,–,> 100 µM,–,> 100 µM,–,> 100 µM
Cc1cc2c(Br)cc(Br)c(O)c2nc1C(=O)c1ccccc1,–,> 68.2 µM,–,> 100 µM,–,> 100 µM,–,28.6 µM,–,> 83.6 µM,–,97 µM,–,> 100 µM,–,97.2 µM,–,52.1 µM,–,> 100 µM
Cc1ncc(C(=O)Nc2ccc(CN3CCN(C)CC3)c(C(F)(F)F)c2)cc1C#Cc1cnc(NC2CC2)c2ncccc12,1.27 µM,2.88 µM,1.81 µM,5.75 µM,0.635 µM,1.23 µM,0.65 µM,1.16 µM,0.606 µM,1.1 µM,0.612 µM,1.11 µM,0.577 µM,1.04 µM,1.66 µM,5.54 µM,0.0211 µM,0.476 µM,0.197 µM,0.819 µM
O=C/C(=C(/Cl)c1ccc(O)cc1)c1ccccc1,–,> 100 µM,–,> 67.2 µM,–,26.1 µM,–,> 66.3 µM,–,57.2 µM,–,> 57.1 µM,–,50.2 µM,–,81.6 µM,–,> 100 µM,–,> 100 µM
O=S1(=O)NCCCN1CCNc1nccc(-c2c(-c3cccc(O)c3)nc3sccn23)n1,31.3 µM,> 92 µM,7.78 µM,> 100 µM,14.6 µM,80.7 µM,14.4 µM,> 100 µM,5.17 µM,38.4 µM,33.5 µM,> 100 µM,11.8 µM,> 100 µM,2.57 µM,9.66 µM,21.6 µM,> 100 µM,33.3 µM,> 90.4 µM

# From PubChem BioAssay (NCI)
